SMILES strings stand for the structures.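 Exposure lasted 48 hours, with cells grown in 96-well plates and compounds tested at five concentrations. Abbreviation: GI50, concentration required for 50% inhibition of growth.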 Activity calls are given as the source filed them. No stated cut-off is given here; in the data, active = GI50 up to about 1.1 µM and inactive = higher.

Among the test systems are 786-0; A498; A549; ACHN; CCRF-CEM; COLO 205; HCT-15; HT-29; KM12; LOX IMVI; MCF7; MDA-MB-231; Malme-3M; NCI-H226; OVCAR-4; SF-295; SK-MEL-2; SNB-75; SR; UACC-62.
Assay in all cases: inhibition of tumour cell growth, NCI panel, 48 h

On to `O=C(N/N=C\c1ccc([N+](=O)[O-])cc1)Nc1cccc2ccccc12`, for which the GI50 in the experiment on 786-0 is 7.1 µM (inactive); in the experiment on A498 it was 14 µM (inactive); in the experiment on A549, > 49.9 µM (inactive); with ACHN it was 27.5 µM (inactive); in the experiment on CCRF-CEM it was > 100 µM (inactive); in the experiment on COLO 205, > 100 µM (inactive). The GI50 with HCT-15 was > 50.5 µM; in the experiment with HT-29, > 100 µM (inactive); with KM12, > 29.7 µM (inactive); in the experiment on LOX IMVI, 22.5 µM (inactive); in the experiment on MCF7, > 43.7 µM (inactive); in the experiment with MDA-MB-231, 14.1 µM (inactive). The GI50 with Malme-3M is 27.7 µM (inactive); in the experiment with NCI-H226, 17.7 µM (inactive); in the experiment on OVCAR-4, > 25.9 µM (inactive); with SF-295, 7.28 µM (inactive); in the experiment on SK-MEL-2 it was 5.55 µM (inactive); in the experiment with SNB-75 it was 3.23 µM (inactive). In addition, the results for the GI50 in the experiment on SR and in the experiment with UACC-62 were > 55.1 µM (inactive) and 13.2 µM (inactive), respectively.
With `COc1ccc2oc(=N)c(C(=O)NCc3ccccc3)cc2c1`, the GI50 in the experiment with 786-0 was 27.9 µM (inactive); in the experiment with A498 it was 15.2 µM (inactive); with A549, 34 µM (inactive); in the experiment with ACHN, 13.3 µM (inactive); with CCRF-CEM it was 62.1 µM (inactive); with COLO 205, 31.7 µM (inactive). Moreover, the GI50 with HCT-15 was 21.1 µM; in the experiment with HT-29, 34.7 µM (inactive); with KM12, 13.3 µM (inactive); in the experiment on LOX IMVI it was 38.6 µM (inactive); with MCF7, 24 µM (inactive); with MDA-MB-231 it was 23.3 µM (inactive). The GI50 in the experiment on Malme-3M was 15.5 µM (inactive); in the experiment on NCI-H226 it was 22.7 µM (inactive); in the experiment with OVCAR-4, 34.8 µM (inactive); with SF-295 it was 24.7 µM (inactive); in the experiment on SK-MEL-2, 18.6 µM (inactive); with SNB-75, 15.3 µM (inactive). In the experiment on SR, the GI50 was 54.8 µM (inactive).
Take `COc1cc(/C=C/C=C2\CC/C(=C\C=C\c3ccc(O)c(OC)c3)C2=O)ccc1O`: the GI50 was > 100 µM (inactive) in the experiment with 786-0; > 100 µM (inactive) in the experiment with A498; > 100 µM (inactive) with A549; > 100 µM (inactive) with ACHN; 0.305 µM (active) with CCRF-CEM; > 100 µM (inactive) in the experiment with COLO 205. The GI50 with HCT-15 was > 100 µM; in the experiment with HT-29, > 100 µM (inactive); in the experiment on KM12, > 100 µM (inactive); with LOX IMVI, > 100 µM (inactive); in the experiment on MCF7, > 100 µM (inactive); with MDA-MB-231, > 59.7 µM (inactive). In addition, the GI50 is > 85.7 µM (inactive) in the experiment with Malme-3M; > 100 µM (inactive) in the experiment with NCI-H226; > 60.1 µM (inactive) in the experiment with OVCAR-4; > 100 µM (inactive) in the experiment on SF-295; > 100 µM (inactive) with SK-MEL-2; > 100 µM (inactive) in the experiment on SNB-75. In addition, the values for the GI50 in the experiment with SR and in the experiment with UACC-62 were 2.53 µM (inactive) and > 100 µM (inactive), respectively.
Turning to `Cc1nc2ccccc2[nH]/c1=N/Nc1ccccc1`, the GI50 was 25.2 µM (inactive) in the experiment on 786-0; 31.8 µM (inactive) with A498; 21.5 µM (inactive) in the experiment with A549; 30.5 µM (inactive) in the experiment with ACHN; 4.23 µM (inactive) in the experiment with CCRF-CEM; 0.108 µM (active) with COLO 205. In addition, the GI50 in the experiment with HCT-15 was 18.9 µM; in the experiment with HT-29, 0.0417 µM (active); in the experiment on KM12, 14.5 µM (inactive); in the experiment with LOX IMVI, 23.3 µM (inactive); in the experiment on MCF7, 12.3 µM (inactive); in the experiment on MDA-MB-231, 28 µM (inactive). Further, the GI50 in the experiment on Malme-3M was 20.3 µM (inactive); with NCI-H226, 18.3 µM (inactive); in the experiment on OVCAR-4 it was 9.66 µM (inactive); in the experiment on SF-295, 18.6 µM (inactive); in the experiment on SK-MEL-2, 30.4 µM (inactive); in the experiment with SNB-75, 18.1 µM (inactive). The GI50 is 19.3 µM (inactive) with SR and 16.3 µM (inactive) with UACC-62.
As to `c1c[nH]c(C23C4C5C6C4C2C6C53)n1` (stereo unspecified), the GI50 in the experiment on 786-0, in the experiment on A498, in the experiment with A549, in the experiment on ACHN, in the experiment on CCRF-CEM and in the experiment with COLO 205 was > 100 µM (inactive) each time. In addition, the GI50 with HCT-15 is > 100 µM; in the experiment on HT-29 it was > 100 µM (inactive); in the experiment on KM12, > 100 µM (inactive); in the experiment on LOX IMVI it was > 100 µM (inactive); in the experiment with MCF7, > 100 µM (inactive); in the experiment with MDA-MB-231 it was > 100 µM (inactive). In addition, the GI50 in the experiment on Malme-3M is > 100 µM (inactive); with NCI-H226, > 100 µM (inactive); with OVCAR-4, 30.6 µM (inactive); in the experiment on SF-295, > 100 µM (inactive); with SK-MEL-2, > 100 µM (inactive); in the experiment with SNB-75 it was > 100 µM (inactive). In addition, the GI50 in the experiment with SR and in the experiment on UACC-62 was > 100 µM (inactive) throughout.
Take `Cc1nc2c(nc1C)-c1[nH]c3c(c1C(=O)C2=O)CCCC3=O`: the GI50 in the experiment with 786-0 was 2.54 µM (inactive); in the experiment with A498 it was 8.3 µM (inactive); with A549, 3.87 µM (inactive); in the experiment on ACHN, 2.64 µM (inactive); with CCRF-CEM, 1.91 µM (inactive); in the experiment with COLO 205, 2.88 µM (inactive). The GI50 is 2.81 µM with HCT-15; 5.74 µM (inactive) with HT-29; 1.95 µM (inactive) with KM12; 0.957 µM (active) with LOX IMVI; 1.38 µM (inactive) in the experiment on MCF7; 1.59 µM (inactive) in the experiment with MDA-MB-231. Also, the GI50 with Malme-3M was 1.29 µM (inactive); in the experiment with NCI-H226, 1.62 µM (inactive); in the experiment on OVCAR-4 it was 1.6 µM (inactive); in the experiment with SF-295, 1.79 µM (inactive); with SK-MEL-2, 1.79 µM (inactive); in the experiment with SNB-75 it was 1.77 µM (inactive). In addition, the GI50 in the experiment with SR is 2.08 µM (inactive); with UACC-62 it was 1.71 µM (inactive).
With `C=C(C)[C@@H]1CCC2=C[C@H](C/C(C)=C\C3=CC(C)=C(O3)[C@H]1O)OC2=O`, the GI50 was 35.2 µM (inactive) with 786-0; > 100 µM (inactive) in the experiment with A498; 88.7 µM (inactive) in the experiment on A549; 57.5 µM (inactive) with ACHN; > 100 µM (inactive) with CCRF-CEM; > 100 µM (inactive) in the experiment on COLO 205. For the same molecule, the GI50 is > 100 µM in the experiment on HCT-15; > 100 µM (inactive) in the experiment with KM12; > 100 µM (inactive) in the experiment on LOX IMVI; 71.1 µM (inactive) with MCF7; 25.8 µM (inactive) with MDA-MB-231; > 100 µM (inactive) in the experiment on Malme-3M. In addition, the GI50 with NCI-H226 is 36.1 µM (inactive); in the experiment with OVCAR-4, 60 µM (inactive); with SF-295 it was 80.9 µM (inactive); with SK-MEL-2, > 100 µM (inactive); in the experiment on SNB-75, > 100 µM (inactive); in the experiment with SR, > 100 µM (inactive). In the experiment on UACC-62, the GI50 is 93.5 µM (inactive).
Turning to `CC1CCc2c(c(CC3CC(=O)NC(=O)C3)nn2-c2ccccc2)C1` (stereo unspecified), the GI50 in the experiment on 786-0, in the experiment with A498, in the experiment on A549, in the experiment on ACHN, in the experiment on CCRF-CEM and in the experiment on COLO 205 was > 100 µM (inactive) throughout. For the same molecule, the GI50 is > 100 µM in the experiment on HCT-15; > 100 µM (inactive) with HT-29; > 100 µM (inactive) with KM12; > 100 µM (inactive) in the experiment on LOX IMVI; > 100 µM (inactive) in the experiment on MCF7; > 100 µM (inactive) in the experiment with MDA-MB-231. Besides, the GI50 in the experiment with Malme-3M, with NCI-H226, in the experiment on OVCAR-4, with SF-295, in the experiment on SK-MEL-2 and in the experiment on SNB-75 was > 100 µM (inactive) in each case. For the same molecule, the GI50 is > 100 µM (inactive) in the experiment with SR and 76.2 µM (inactive) in the experiment with UACC-62.
In the case of `COC(=O)CNC(=O)CCC(C)[C@H]1CCC2C3C(C[C@H](OC(C)=O)[C@@]21C)[C@@]1(C)CCC2(C[C@H]1C[C@H]3OC(C)=O)OOC1(CC[C@]3(C)C4C[C@H](OC(C)=O)[C@@]5(C)C(CC[C@@H]5C(C)CCC(=O)NCC(=O)OC)C4[C@H](OC(C)=O)C[C@@H]3C1)OO2` (stereo partly specified), the GI50 with 786-0 was 0.76 µM (active); with A498 it was 12 µM (inactive); in the experiment on A549, 0.914 µM (active); in the experiment with ACHN, 0.838 µM (active); in the experiment on CCRF-CEM, 0.244 µM (active); in the experiment with COLO 205 it was 0.875 µM (active). In addition, the GI50 in the experiment on HCT-15 was 1.33 µM; with HT-29, 1.01 µM (active); in the experiment on KM12, 3.98 µM (inactive); in the experiment on LOX IMVI it was 0.962 µM (active); in the experiment with MCF7, 2.71 µM (inactive); in the experiment on MDA-MB-231, 1.31 µM (inactive). Moreover, the GI50 in the experiment on Malme-3M was 0.782 µM (active); in the experiment on NCI-H226, 1.12 µM (active); in the experiment on OVCAR-4 it was 4.9 µM (inactive); with SF-295, 5.65 µM (inactive); in the experiment on SK-MEL-2, 0.764 µM (active); in the experiment with SNB-75, 1.64 µM (inactive). Besides, the GI50 in the experiment with SR is 0.381 µM (active).
With `CCOc1nc2sc3c(c2c(=O)n1CCSSCCn1c(OCC)nc2sc4c(c2c1=O)CCCC4)CCCC3`, the GI50 was > 100 µM (inactive) with 786-0; > 100 µM (inactive) in the experiment on A498; > 100 µM (inactive) in the experiment with A549; > 100 µM (inactive) with ACHN; > 100 µM (inactive) with COLO 205; > 100 µM in the experiment on HCT-15. Besides, the GI50 with HT-29, in the experiment with KM12, with LOX IMVI, with MCF7, in the experiment on MDA-MB-231 and in the experiment on Malme-3M was > 100 µM (inactive) each time. The GI50 is 56.4 µM (inactive) with NCI-H226; > 100 µM (inactive) with OVCAR-4; > 100 µM (inactive) in the experiment on SF-295; > 100 µM (inactive) with SK-MEL-2; > 100 µM (inactive) in the experiment on SNB-75; > 100 µM (inactive) with SR. Further, the GI50 in the experiment with UACC-62 is > 100 µM (inactive).

(Values after ChEMBL document CHEMBL1201862, “PubChem BioAssay data set” (2004).)
